Assay: Log P by HPLC on reversed phase columns (EEC directive 79/831 Annex V.A8)
Assay type: physicochemical
Method in brief: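 Reversed-phase HPLC per EEC 79/831 Annex V.A8, LC-UV with 10→95% acetonitrile linear gradient; eluent [a] 0.1% formic acid (acidic), [b] 0.001 M ammonium acetate (neutral), [c] 0.1% phosphoric acid (acidic). Calibrated with C3–C16 straight-chain alkan-2-ones, linear interpolation of retention times; multiple values joined by "+".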

[1] = method marker [a] given with each value, Table 1.1, compounds of formula (I)
[2] = LogP method [a], compounds of formula (I), Table 1.1
[3] = method [a], compounds of formula (I), Table 1.1
[4] = method [a]: LC-UV, acidic range, 0.1% formic acid in water and acetonitrile

With `COC(=O)[C@H](CCC(=O)O)NC(=O)c1sc(Cl)c(Cl)c1Br` [1.1050] the LogP [1] was 2.68^[a].

With `COC(=O)C(NC(=O)c1cc(C#N)c(Cl)s1)C1CC1` (stereo not shown) [1.0381] the LogP (method marked [a]) was 2.47^[a].

With `CCOC(=O)C(CSC)NC(=O)c1sc(Br)c(Br)c1F` (stereo not shown) [1.0556] the LogP (method [a]) was 3.87^[a].

With `CNC(=S)SC[C@H](NC(=O)c1sc(Br)c(Br)c1F)C(=O)OC` [1.0534] the LogP (method [a]) was 3.24^[a].

In the case of `CCOC(=O)[C@H](CCSC)NC(=O)c1sc(Cl)c(Br)c1C` [1.0736], the LogP (method marked [a]) is reported as 4.02^[a].

For `COC(=O)[C@H](CCSC)NC(=O)c1sc(Cl)c(Br)c1C` [1.0767], the LogP (method marked [a]) was 3.74^[a].

For `CCOC(=O)C1(NC(=O)c2sc(C#N)c(Cl)c2Cl)CC1` [1.0572], the LogP (method [a]) was 2.76^[a].

In the case of `O=C(NC1(C(=O)O)CC1)c1cc(Br)c(C(F)(F)F)s1` [1.0700], the LogP (method marked [a]) is reported as 2.44^[a].

With `CCOC(=O)[C@H](CCSC)NC(=O)c1sc(Br)c(Cl)c1C` [1.0765] the LogP (method marked [a]) was 4.01^[a].

With `CCOC(=O)C(Cc1c[nH]c2ccccc12)NC(=O)c1sc(Br)c(Cl)c1C` (stereo not shown) [1.0132] the LogP (method [a]) was 4.11^[a].

In the case of `CCOC(=O)C(NC(=O)c1cc(F)c(Cl)s1)C(C)C` (stereo not shown) [1.0309], the LogP (method marked [a]) is reported as 3.44^[a].

With `C#CCOC(=O)C1(NC(=O)c2sc(Cl)c(Cl)c2C#N)CC1` [1.0785] the LogP (method marked [a]) was 2.65^[a].

With `COC(=O)CNC(=O)c1sc(Br)c(Br)c1C(F)F` [1.0354] the LogP (method marked [a]) was 2.66^[a].

For `CCCOC(=O)C1(NC(=O)c2cc(Br)c(Cl)s2)CC1` [1.0601], the LogP (method [a]) was 3.43^[a].

In the case of `N#CCNC(=O)c1sc(Cl)c(Cl)c1C#N` [1.0688], the LogP (method marked [a]) is reported as 2.04^[a].

With `CCOC(=O)CNC(=O)c1sc(Cl)c(C#N)c1Cl` [1.0393] the LogP (method marked [a]) was 2.54^[a].

With `CCOC(=O)CNC(=O)c1sc(Br)c(Br)c1F` [1.0449] the LogP [2] was 2.97^[a].

With `CCOC(=O)CCNC(=O)c1sc(Br)c(Cl)c1C` [1.0073] the LogP [3] was 3.11^[a].

For `O=C(N[C@H]1CCCNC1=O)c1sc(Cl)c(Br)c1Cl` [I.0939], the LogP [4] was 2.29^[a].

For `N#Cc1sc(C(=O)NC2(C(=O)O)CC2)cc1Br` [1.0282], the LogP (method marked [a]) was 1.70^[a].

In the case of `CCOC(=O)CCNC(=O)c1cc(C)c(Cl)s1` [1.0465], the LogP [2] is reported as 2.49^[a].

For `CCOC(=O)C(NC(=O)c1sc(Br)c(Br)c1Cl)C(=O)OCC` [1.0783], the LogP (method marked [a]) was 4.33^[a].

With `N#Cc1c(C(=O)NC2(C(=O)OC3CCC3)CC2)sc(Cl)c1Br` [1.0632] the LogP (method [a]) was 3.21^[a].

For `CCOC(=O)C(CCSC)NC(=O)c1sc(Br)c(Cl)c1Cl` (stereo not shown) [1.0203], the LogP (method [a]) was 4.44^[a].

In the case of `CCOC(=O)C(CCSC)NC(=O)c1sc(Br)c(Br)c1C#N` (stereo not shown) [1.0794], the LogP (method [a]) is reported as 3.51^[a].

For `CCOC(=O)C(C)NC(=O)c1sc(Br)c(Cl)c1C` (stereo not shown) [1.0140], the LogP (method [a]) was 3.35^[a].

With `CC(C)(C)OC(=O)CNC(=O)c1sc(Br)c(Br)c1Cl` [1.0986] the LogP [1] was 4.20^[a].

In the case of `CCOC(=O)CNC(=O)c1cc(C#N)c(Br)s1` [1.0400], the LogP (method marked [a]) is reported as 2.11^[a].

With `CCOC(=O)C1(NC(=O)c2sc(C#N)c(Cl)c2Cl)CCC1` [1.0579] the LogP (method [a]) was 3.35^[a].

In the case of `N#CCNC(=O)c1sc(C#N)c(Cl)c1Cl` [1.0582], the LogP (method [a]) is reported as 2.04^[a].

For `CCOC(=O)C(C#N)NC(=O)c1sc(Br)c(Br)c1Cl` (stereo not shown) [1.0741], the LogP (method marked [a]) was 3.34^[a].

In the case of `N#Cc1c(C(=O)O)sc(Cl)c1Br` [II.083], the LogP [4] is reported as 1.70^[a].

In the case of `C=CCOC(=O)C1(NC(=O)c2sc(C#N)c(Br)c2C)CC1` [1.0962], the LogP [1] is reported as 2.81^[a].

With `Cc1c(C(=O)NC2(C(=O)O)CC2)sc(Cl)c1Br` [1.0170] the LogP (method [a]) was 2.21^[a].

With `CCCCOC(=O)CNC(=O)c1sc(Br)c(Br)c1F` [1.0860] the LogP (method [a]) was 3.79^[a].

In the case of `O=C(NC1(C(=O)OCc2ccccc2)CCC1)c1sc(Br)c(Br)c1Cl` [1.0909], the LogP (method [a]) is reported as 5.00^[a].

For `O=C(NC1CCOC1=O)c1sc(Cl)c(Br)c1Cl` (stereo not shown) [I.0949], the LogP [4] was 2.56^[a].

With `O=C(N[C@H]1CCSC1=O)c1sc(Cl)c(Cl)c1Br` [I.1011] the LogP [4] was 3.24^[a].

For `NC(=O)CNC(=O)c1sc(Cl)c(Cl)c1Br` [1.0626], the LogP (method [a]) was 1.98^[a].

For `Cc1c(C(=O)NC2(C(=O)O)CC2)sc(C#N)c1Cl` [1.0291], the LogP (method marked [a]) was 1.79^[a].

For `C=CC1CC1(NC(=O)c1sc(Br)c(Br)c1F)C(=O)OC` (mixture of isomers) [1.0008], the LogP [3] was 3.37^[a].

For `CCOC(=O)[C@H](CO)NC(=O)c1sc(Br)c(Br)c1Cl` [1.0817], the LogP (method [a]) was 2.84^[a].

With `O=C(NC1CCOC1=O)c1sc(Br)c(Br)c1Cl` (stereo not shown) [I.1031] the LogP [4] was 2.58^[a].

With `CCOC(=O)[C@@H](Cc1ccccc1)NC(=O)c1sc(Br)c(Br)c1F` [1.0153] the LogP (method [a]) was 4.55^[a].

For `CCOC(=O)C(C#N)NC(=O)c1sc(Cl)c(Cl)c1C` (stereo not shown) [1.0758], the LogP (method marked [a]) was 3.23^[a].

For `CCOC(=O)CNC(=O)c1sc(Cl)c(Br)c1C` [1.0063], the LogP [3] was 2.98^[a].

For `COC(=O)C1(NC(=O)c2sc(Br)c(Br)c2C(F)(F)F)CC1` [1.0368], the LogP (method marked [a]) was 2.93^[a].

In the case of `N#Cc1c(Br)sc(C(=O)O)c1Cl` [II.001], the LogP [4] is reported as 1.66^[a].

With `CC(C)(NC(=O)c1sc(Br)c(Br)c1Cl)C(=O)O` [1.1023] the LogP [1] was 2.81^[a].

With `Cc1c(C(=O)NC(C#N)c2ccccc2)sc(Br)c1Cl` (stereo not shown) [1.0113] the LogP [3] was 3.81^[a].

In the case of `CCOC(=O)C(Cc1ccccc1)NC(=O)c1cc(C)c(Cl)s1` (racemic) [1.0031], the LogP [3] is reported as 3.73^[a].

In the case of `C=CCOC(=O)CNC(=O)c1sc(Br)c(Br)c1F` [1.0857], the LogP (method [a]) is reported as 3.13^[a].

With `COC(=O)C(Cc1ccc(Cl)cc1)NC(=O)c1sc(Br)c(Br)c1Cl` (racemic) [1.0940] the LogP [1] was 4.95^[a].

With `COC(=O)C(CC(F)F)NC(=O)c1sc(Cl)c(Br)c1Cl` (stereo not shown) [1.0184] the LogP (method [a]) was 3.64^[a].

With `COC(=O)C(CC(F)F)NC(=O)c1sc(Br)c(Br)c1F` (stereo not shown) [1.0440] the LogP [2] was 3.23^[a].

With `CCOC(=O)CNC(=O)c1sc(C)c(Cl)c1Cl` [1.0848] the LogP (method [a]) was 2.82^[a].

With `CCOC(=O)C1(NC(=O)c2sc(Br)c(I)c2C)CCC1` [1.0090] the LogP [3] was 3.77^[a].

In the case of `CCOC(=O)c1cc(Br)c(C(F)(F)F)s1` [II.082], the LogP [4] is reported as 4.40^[a].

In the case of `CCOC(=O)C1(NC(=O)C2(NC(=O)c3cc(I)c(I)s3)CC2)CC1` [1.0476], the LogP [2] is reported as 2.59^[a].

For `CCOC(=O)C1(NC(=O)c2sc(Cl)c(Cl)c2C#N)CC1` [1.0232], the LogP (method [a]) was 2.72^[a].

In the case of `COC(=O)C(C)(C)NC(=O)c1sc(Cl)c(Cl)c1C(F)F` [1.1070], the LogP [1] is reported as 3.16^[a].

In the case of `COC(=O)CNC(=O)c1sc(Br)c(Br)c1C#N` [1.0798], the LogP (method [a]) is reported as 2.24^[a].

In the case of `O=C(O)c1sc(Cl)c(Br)c1Cl` [II.012], the LogP [4] is reported as 2.44^[a].

For `Cc1c(C(=O)NC2(C#N)CC2)sc(Br)c1Cl` [1.0112], the LogP [3] was 2.75^[a].

With `CC[C@H](C)[C@H](NC(=O)c1sc(Cl)c(Br)c1C)C(=O)OC` [I.0123] the LogP [4] was 4.27^[a].

For `CCOC(=O)C(NC(=O)c1sc(Cl)c(C#N)c1Br)C(C)C` (stereo not shown) [1.0658], the LogP (method marked [a]) was 3.83^[a].

With `COC(=O)CNC(=O)c1sc(C#N)c(Cl)c1Cl` [1.0571] the LogP (method [a]) was 2.20^[a].

In the case of `Cc1c(C(=O)O)sc(Br)c1I` [II.018], the LogP [4] is reported as 2.92^[a].

With `Cc1c(C(=O)NC(C#N)C(C)C)sc(C#N)c1Br` (stereo not shown) [1.1016] the LogP [1] was 3.03^[a].

With `CCOC(=O)C(COC)NC(=O)c1sc(Cl)c(Br)c1C` (stereo not shown) [1.0125] the LogP [3] was 3.44^[a].

Work on `CCOC(=O)[C@H](CC(C)C)NC(=O)c1sc(Cl)c(Cl)c1C#N` [I.0279, ethyl N-[(4,5-dichloro-3-cyano-2-thienyl)carbonyl]leucinate] yielded a chromatographic logP (reversed phase HPLC columns, value in preparation example, method not marked) of 4.05.

For `COC(=O)CNC(=O)c1cc(Br)c(Cl)s1` [1.0240], the LogP (method [a]) was 2.36^[a].

For `COC(=O)C(NC(=O)c1sc(Cl)c(Cl)c1F)C1CC1` (stereo not shown) [1.0346], the LogP (method marked [a]) was 3.36^[a].
